Assay results: ChEMBL document CHEMBL1857833, “Screening and optimization of specific chemical series against human African Trypanosomiasis (HAT)”
Values after ≈ are worked out from the molar mass of the structure shown. Values joined by “and” are separate entries in the source; they are usually repeats but may differ in a detail not shown here. Equal values may be shown once.

Tests used:
[1] = (§1) DNDI: Cytotoxicity against L929 mouse fibroblasts, 72 hour.; type: toxicity, cell-based; details: mouse, L929 mouse fibroblasts
[2] = tested on: Trypanosoma brucei; experiment: DNDI: Inhibition of Human African Trypanosomiasis, SBRI 427, in vitro; type: functional, organism-based
[3] = DNDI: Lipophilicity measured in Chromatographic hydrophobicity index (CHI) assay, pH 7.4; type: physicochemical; details: buffer
[4] = DNDI: half-life in mouse S9 microsomes at a concentration of 1uM; type: ADME, subcellular, Liver, S9 fraction
[5] = DNDI: half-life in mouse S9 microsomes at a concentration of 10uM; type: ADME, subcellular, Liver, S9 fraction
[6] = DNDI: Solubility in phosphate buffered saline at pH7.4 measured by nephelometry at room temperature (NEPH-RT); type: physicochemical; details: pH 7.4
[7] = tested on: Trypanosoma cruzi; experiment: DNDI: Inhibition of Chagas Disease parasite Trypanosoma cruzi (Tulahuen LacZ, Clone C4), in vitro.; type: functional, organism-based
[8] = (§2) DNDI: Cytotoxicity against L929 mouse fibroblasts, CYTO-SP, 24 hour; type: toxicity, cell-based; details: mouse, L929 mouse fibroblasts
[9] = DNDI: Cytotoxicity against L-6 rat myoblasts from skeletal muscle cells; type: toxicity, cell-based, L6; details: L-6 rat skeletal muscle myoblasts
[10] = tested on: Trypanosoma brucei; experiment: DNDI: Inhibition of Human African Trypanosomiasis, Cross 22, in vitro; type: functional, organism-based
[11] = tested on: Trypanosoma brucei; experiment: DNDI: Inhibition of Human African Trypanosomiasis, EATRO 110, in vitro; type: functional, organism-based
[12] = tested on: Trypanosoma brucei rhodesiense; experiment: DNDI: Inhibition of Human African Trypanosomiasis (HAT), STIB 900, in vitro; type: functional, organism-based
[13] = tested on: Leishmania donovani; experiment: DNDI: Inhibition of formation of Leishmania donovani (strain MHOM/ET/67/L82) axenic amastigotes, in vitro.; type: functional, organism-based
[14] = tested on: Plasmodium falciparum; experiment: DNDI: Inhibition of the malaria parasite Plasmodium falciparum, in vitro; type: functional, organism-based; details: K1
[15] = DNDI: half life in human liver microsomes at a concentration of 10uM; type: ADME, Microsome
[16] = DNDI: in vitro intrinsic clearance in human liver microsomes at a concentration of 10uM; type: ADME, Microsome
[17] = DNDI: in vitro intrinsic clearance in mouse liver microsomes at a concentration of 10uM; type: ADME, Microsome; details: read-out: CLint in vitro
[18] = DNDI: half life in mouse liver microsomes at a concentration of 10uM; type: ADME, Microsome
[19] = molecular target: T1, MDR1 (ABCB1) (Homo sapiens, UniProt P08183); experiment: DNDI: % of compound recovered from apical to basolateral permeability assay in MDCK cells transfected with human MDR1; type: ADME, cell-based, Canis lupus familiaris; details: dog
[20] = molecular target: T1, MDR1 (ABCB1); experiment: DNDI: Apparent permeability from apical to basolateral side of the MDCK cell transfected with human MDR1; type: ADME, cell-based, Canis lupus familiaris; details: dog
[21] = molecular target: T1, MDR1 (ABCB1); experiment: DNDI: Apparent permeability from basolateral to apical side of the MDCK cell transfected with human MDR1 after 60 mins at a concentration of 3uM; type: ADME, cell-based, Canis lupus familiaris; details: dog
[22] = molecular target: T1, MDR1 (ABCB1); experiment: DNDI: % of compound recovered from basolateral to apical permeability assay in MDCK cells transfected with human MDR1; type: ADME, cell-based, Canis lupus familiaris; details: dog
[23] = molecular target: T1, MDR1 (ABCB1); experiment: DNDI: Efflux ratio for permeability from basolateral to apical side to apical to basolateral side of MDCK cells transfected with human MDR1; type: ADME, cell-based, Canis lupus familiaris; details: dog, read-out: B-A/A-B
[24] = DNDI: Solubility in phosphate buffered saline at pH7.4 measured by optical density (turbidimetry) at room temperature (OD-RT); type: physicochemical; details: pH 7.4
[25] = mouse, microsomes, 1 µM
Description: (§4) DNDI: in vitro intrinsic clearance in mouse liver microsomes at a concentration of 1uM

[26] = in vitro; details: mouse, t (1 / 2)
Description: (§5) DNDI: half life in mouse liver microsomes at a concentration of 1uM

[27] = tested on: L929; experiment: as §2; type: toxicity, cell-based; details: l929
[28] = tested on: L929; experiment: as §1; type: toxicity, cell-based; details: l929
[29] = molecular target: T1, MDR1 (ABCB1); experiment: DNDI: % of compound recovered from apical to basolateral permeability assay in MDCK cells transfected with human MDR1 after 60 mins at a concentration of 3uM; type: ADME, cell-based, Canis lupus familiaris; details: dog
[30] = molecular target: T1, MDR1 (ABCB1); experiment: DNDI: Apparent permeability from apical to basolateral side of the MDCK cell transfected with human MDR1after 60 mins at a concentration of 3uM; type: ADME, cell-based, Canis lupus familiaris; details: dog, MDCK-MDR1
[31] = molecular target: T1, MDR1 (ABCB1); experiment: DNDI: % of compound recovered from apical to basolateral permeability assay in MDCK cells transfected with human MDR1 after 60 mins at a concentration of 3uM in the presence of GF120918; type: ADME, cell-based, Canis lupus familiaris; details: dog, MDCK-MDR1, with GF120918 (concentration not stated)
[32] = tested on: Trypanosoma brucei; experiment: (§3) DNDI: Mean survival time in days (MSD) of mice after intraperitoneal injection of Human African Trypanosomiasis (HAT), EATRO 110, in vivo at 20 mg/kg/day for 4 days.; type: functional, Mus musculus
[33] = tested on: Trypanosoma brucei; experiment: DNDI: Mean survival time in days (MSD) of mice after intraperitoneal injection of Human African Trypanosomiasis (HAT), EATRO 110, in vivo at 5 mg/kg/day for 4 days.; type: functional, Mus musculus
[34] = tested on: Trypanosoma brucei; experiment: as §3; type: functional, Mus musculus; remark: listed apart in the source
[35] = mouse, microsomes, 1 µM; remark: listed apart in the source
Description: as §5

[36] = in vitro; details: human, liver microsomes, t (1 / 2)
Description: DNDI: half life in human liver microsomes at a concentration of 1uM

[37] = in vitro; details: human, liver microsomes, CLint in vitro
Description: DNDI: in vitro intrinsic clearance in human liver microsomes at a concentration of 1uM

[38] = in vitro; details: mouse, liver microsomes
Description: as §4

[39] = Trypanosoma brucei, SBRI 427, read-out: IC50

T1 sequence (P08183 whole entry): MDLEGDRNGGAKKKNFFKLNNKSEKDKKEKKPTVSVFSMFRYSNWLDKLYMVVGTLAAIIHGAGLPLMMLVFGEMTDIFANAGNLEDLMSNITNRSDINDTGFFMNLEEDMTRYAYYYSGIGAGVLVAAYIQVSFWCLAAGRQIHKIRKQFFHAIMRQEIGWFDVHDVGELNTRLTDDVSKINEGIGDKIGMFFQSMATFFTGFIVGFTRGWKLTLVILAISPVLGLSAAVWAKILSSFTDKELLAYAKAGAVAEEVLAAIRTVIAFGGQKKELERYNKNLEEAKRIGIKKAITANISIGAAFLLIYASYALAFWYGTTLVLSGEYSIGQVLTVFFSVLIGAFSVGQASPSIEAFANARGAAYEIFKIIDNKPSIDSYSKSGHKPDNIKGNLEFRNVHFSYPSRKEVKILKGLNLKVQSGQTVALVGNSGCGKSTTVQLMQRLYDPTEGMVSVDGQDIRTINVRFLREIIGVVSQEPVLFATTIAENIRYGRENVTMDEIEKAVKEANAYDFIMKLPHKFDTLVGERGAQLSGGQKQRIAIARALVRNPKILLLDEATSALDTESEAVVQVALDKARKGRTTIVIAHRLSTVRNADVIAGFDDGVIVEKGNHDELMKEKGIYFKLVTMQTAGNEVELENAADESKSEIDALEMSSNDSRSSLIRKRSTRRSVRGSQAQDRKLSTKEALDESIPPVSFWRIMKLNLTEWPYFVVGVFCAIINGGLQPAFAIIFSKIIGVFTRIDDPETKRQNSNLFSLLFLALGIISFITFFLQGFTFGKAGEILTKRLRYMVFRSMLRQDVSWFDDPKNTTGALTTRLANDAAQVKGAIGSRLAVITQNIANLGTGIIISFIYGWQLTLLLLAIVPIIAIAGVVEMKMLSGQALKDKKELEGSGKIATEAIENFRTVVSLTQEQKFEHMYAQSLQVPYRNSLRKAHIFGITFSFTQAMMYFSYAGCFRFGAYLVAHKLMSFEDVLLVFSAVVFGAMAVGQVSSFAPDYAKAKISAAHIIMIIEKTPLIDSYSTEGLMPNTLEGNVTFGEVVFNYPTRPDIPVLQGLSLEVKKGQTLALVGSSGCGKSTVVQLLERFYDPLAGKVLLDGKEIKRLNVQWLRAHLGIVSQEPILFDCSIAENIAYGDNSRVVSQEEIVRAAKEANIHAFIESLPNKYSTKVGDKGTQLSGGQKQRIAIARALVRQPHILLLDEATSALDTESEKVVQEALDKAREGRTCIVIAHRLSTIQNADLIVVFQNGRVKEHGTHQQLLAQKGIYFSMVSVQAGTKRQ

Compound	IC50 [2, 39]	chromatographic logD [3]	solubility kinetic [6]	IC50 [7]	IC50 [10]	IC50 [12]	IC50 [13]	IC50 [14]	CLint in vitro [25]	half-life at 1 µM ([26]; liver microsomes)	IC50 at 72 h [1]	IC50 at 24 h [8]	IC50 [9]	IC50 [28]	also measured
Fc1ccc(-c2cc3nc(-c4ccccc4)cc(NC4CCNCC4)n3n2)cc1	0.555 µg/mL (≈ 1.43 µM)	4.2	13 µM (≈ 5.04 µg/mL)								1.11 µg/mL (≈ 2.86 µM)				half-life at 1 µM [4]: > 5.83 h; half-life at 10 µM [5]: > 5.83 h
Cc1cc(N2CCNCC2)n2nc(-c3cccc(F)c3)cc2n1	> 5 µg/mL	3.44	50 µM (≈ 15.6 µg/mL)								9.09 µg/mL (≈ 29.2 µM)				half-life at 1 µM [4]: 0.762 h; half-life at 10 µM [5]: 3.57 h; recovery at 1 h, 3 µM [29]: 70.4%; Papp A→B at 1 h, 3 µM [30]: 45.2 ×10⁻⁶ cm/s; recovery at 1 h, 3 µM [31]: 63.6%
CCCCc1ccc(-c2nc(CNCC(O)CN)co2)cc1 (stereo unspecified)	0.6 µg/mL (≈ 1.98 µM)										2.91 µg/mL (≈ 9.59 µM)			3.31 µg/mL (≈ 10.9 µM)	
O/N=C(/NC1CCCCC1)c1cccnc1Oc1ccccc1	1.17 µg/mL (≈ 3.76 µM)	3.92		> 30 µg/mL		27.6 µg/mL (≈ 88.6 µM)	44 µg/mL (≈ 141 µM)	4.2 µg/mL (≈ 13.5 µM)	423 µL/min/mg		> 10 µg/mL	> 50 µg/mL	43.9 µg/mL (≈ 141 µM)		half-life at 10 µM [15]: 5.23 h; CLint in vitro [16]: 9 µL/min/mg; microsomal CLint at 10 µM [17]: 275 µL/min/mg; half-life at 10 µM [18]: 0.183 h; recovery [19]: 66%; Papp A→B [20]: 30.9 ×10⁻⁶ cm/s; Papp B→A at 1 h, 3 µM [21]: 51.4 ×10⁻⁶ cm/s; recovery [22]: 83%; efflux ratio [23]: 1.7; solubility kinetic [24]: 63 µM (≈ 19.6 µg/mL); half-life at 1 µM ([26]; microsomes): 0.0333 h
CCCCc1ccc(-c2nc(CNC3CC(C)CC(C)(C)C3)co2)cc1 (stereo unspecified)		5.99	6 µM (≈ 2.13 µg/mL)	2 µg/mL (≈ 5.64 µM)	0.34 µg/mL (≈ 0.959 µM)	0.348 µg/mL (≈ 0.982 µM)	5.26 µg/mL (≈ 14.8 µM)	0.521 µg/mL (≈ 1.47 µM)	3 µL/min/mg	3.2 h	0.64 µg/mL (≈ 1.81 µM)	> 50 µg/mL	1.73 µg/mL (≈ 4.88 µM)	1.26 µg/mL (≈ 3.55 µM)	MSD [32]: 2.5 days; MSD [33]: 4 days; MSD [34]: 4 days; t (1 / 2) [35]: 251 min and 224 min; half-life at 1 µM [36]: 0.983 h; microsomal CLint at 1 µM [37]: 14 µL/min/mg; microsomal CLint at 1 µM [38]: 4 µL/min/mg

The next lines start with results.

IC50 [2, 39]	chromatographic logD [3]	solubility kinetic [6]	IC50 [7]	IC50 [10]	IC50 [12]	IC50 [13]	IC50 [14]	CLint in vitro [25]	half-life at 1 µM ([26]; liver microsomes)	Compound	IC50 at 72 h [1]	IC50 at 24 h [8]	IC50 [9]	IC50 [28]	also measured
	4.95		7.7 µg/mL (≈ 24.3 µM)	0.67 µg/mL (≈ 2.12 µM)	0.342 µg/mL (≈ 1.08 µM)	12.3 µg/mL (≈ 38.8 µM)	1.38 µg/mL (≈ 4.36 µM)	36 µL/min/mg	0.383 h	CCCCCC(C)NCc1coc(-c2ccc(OCC)cc2)n1 (stereo unspecified)	5.27 µg/mL (≈ 16.7 µM)	> 50 µg/mL	8.28 µg/mL (≈ 26.2 µM)		IC50 [11]: 0.8 µg/mL (≈ 2.53 µM); half-life at 10 µM [15]: 1.47 h; CLint in vitro [16]: 33 µL/min/mg; microsomal CLint at 10 µM [17]: 3 µL/min/mg; half-life at 10 µM [18]: 14.7 h; recovery [19]: 33%; Papp A→B [20]: 20.9 ×10⁻⁶ cm/s; Papp B→A at 1 h, 3 µM [21]: 22 ×10⁻⁶ cm/s; recovery [22]: 56%; efflux ratio [23]: 1; solubility kinetic [24]: 32 µM (≈ 10.1 µg/mL)
1.23 µg/mL (≈ 3.59 µM)				0.79 µg/mL (≈ 2.31 µM)				50 µL/min/mg	0.283 h	CCOc1ccc(-c2nc(CNC3CC(C)CC(C)(C)C3)co2)cc1 (stereo unspecified)	< 3.13 µg/mL	44.1 µg/mL (≈ 129 µM)			IC50 [27]: 29.3 µg/mL (≈ 85.6 µM); IC50 [11]: 1.03 µg/mL (≈ 3.01 µM); IC50 [2]: 0.79 µg/mL and 1.06 µg/mL and 1.41 µg/mL and 0.84 µg/mL
1.55 µg/mL (≈ 4.51 µM)										CCCCc1ccc(-c2nc(CNCC(C)(C)CN(C)C)co2)cc1	4.92 µg/mL (≈ 14.3 µM)			2.73 µg/mL (≈ 7.95 µM)	
0.39 µg/mL (≈ 1.24 µM)										CCCCc1ccc(-c2nc(CNCC(C)(C)CN)co2)cc1	1.81 µg/mL (≈ 5.74 µM)			2.96 µg/mL (≈ 9.38 µM)	
